How the values were obtained:
[1] = test system: inflammation following cataract surgery; assay: Clinical dose ranging study after cataract surgery: resolution of anterior chamber (AC) cells and flare; type: in vivo, human; details: 3% QID; for Anterior chamber cells, change from baseline, compared to vehicle: 2% QID
From the text: (§1) There were 8 treatment groups in this study, consisting of three drug doses, vehicle and three dosing frequencies (see also Table 4-1): • Group A: 1% BOL-303242-X ophthalmic suspension, two times per day (BID) • Group B: 2% BOL-303242-X ophthalmic suspension, one time per day (QD) • Group C: 2% BOL-303242-X ophthalmic suspension, BID • Group D: 2% BOL-303242-X ophthalmic suspension, four times per day (QID) • Group E: 3% BOL-303242-X ophthalmic suspension, QD • Group F: 3% BOL-303242-X ophthalmic suspension, BID • Group G: 3% BOL-303242-X ophthalmic suspension, QID • Group H: Vehicle for BOL-303242-X (divided equally into QID, BID, and QD)
(§2) At Visit 3 (postoperative Day 1, 18 to 34 hours following surgery), subjects meeting all eligibility criteria were randomized to one of the treatment groups continuing to be studied, including vehicle, in a 1:1 ratio.
(§3) Subjects self-administered study drug, instilling 1 to 2 drops of study drug into the study eye: QID at approximately 4 hour intervals, BID at approximately 12 hour intervals, or QD once in the morning, for 14 days. The initial dose occurred in the clinic at Visit 3 and the final dose was on the day before Visit 6 (postoperative Day 15±1 day). Subjects were examined and evaluated according to the following schedule:
(§4) Visit 1 (screening), Visit 2 (cataract surgery), Visit 3 (postoperative Day 1), Visit 4 (postoperative Day 3±1 day), Visit 5 (postoperative Day 8±1 day), Visit 6 (postoperative Day 15±1 day), Visit 7 (postoperative Day 18±1 day). Subject assessments included adverse events (AEs), concomitant medications, ocular symptoms, pinholed Snellen visual acuity (VA), intraocular pressure (IOP), ocular signs (biomicroscopy), fundoscopy, and study drug drop sensation. In addition, subject diaries were collected and reviewed for accuracy and treatment compliance.
Among other criteria for inclusion in this study, subjects were those who: • were to be at least 18 years of age on the date the informed consent form (“ICF”) was signed and with the capacity to voluntarily provide consent; • were candidates for routine, uncomplicated cataract surgery (phacoemulsification with posterior chamber intraocular lens (“IOL”) implantation, not combined with any other surgery) in the study eye; • in the Investigator's opinion, had potential postoperative pinholed Snellen visual acuity (“VA”) of at least 20/200 or pinholed Decimal VA of 0.1 in the study eye; • had undergone routine, uncomplicated cataract surgery (phacoemulsification with posterior chamber IOL implantation, not combined with any other surgery) in the study eye; and • had ≧Grade 2 anterior chamber (“AC”) cells in the study eye.
Primary Efficacy: The primary efficacy endpoint for this study was the proportion of subjects with complete resolution of AC cells at Visit 5 (postoperative Day 8). Complete resolution of AC cells is defined as Grade 0 cells.
(§5) Secondary Efficacy: The secondary efficacy endpoints for this study were the proportions of subjects with Grade 0 pain at Visit 5 (postoperative Day 8) and at each visit, complete resolution of AC cells at each visit, complete resolution of AC cells and flare at each visit, complete resolution of AC flare at each visit, change from baseline to each follow-up visit in AC cells and AC flare combined and separately, ocular symptoms.

[2] = test system: IL-1β-stimulated cytokine expression in primary human corneal epithelial cells; assay: IL-1β-stimulated cytokine production in primary human corneal epithelial cells (30-cytokine Luminex kit); details: primary HCECs, 10 ng/ml IL-1β, 18 h
Method: Primary HCECs were seeded in 24-well plates. […] Each treatment was performed in triplicate. Media were collected and used for determination of cytokine content using a 30-cytokine Luminex kit. Cell viability was determined by alamarBlue assay (LP06013).
Median fluorescence intensity (MFI) was used to obtain the concentration of each cytokines in pg/ml based on the standard curve of each cytokine assayed by Luminex. The linear range of the standard curve for each cytokine was used for determination of cytokine concentration. Duplicate values for each sample were averaged. Data were expressed as mean±SD. Statistical analysis was performed using one-way ANOVA-Dunnett's test, and P<0.05 was considered statistically significant.

ocular signs = assay: Clinical dose ranging study after cataract surgery: ocular signs (biomicroscopy); type: in vivo, human
From the text: as §1, §3, §4
Safety: The safety endpoints in this study were: incidence of AEs, change in IOP, ocular signs (biomicroscopy), Snellen VA, fundoscopy, study drug drop sensation assessment.

[3] = test system: pain following cataract surgery; assay: Clinical dose ranging study after cataract surgery: Grade 0 pain; type: in vivo, human
From the text: as §1, §2, §3, §4, §5

Cc1ccc2c(NCC(O)(CC(C)(C)c3cc(F)cc4c3OCC4)C(F)(F)F)cccc2n1 (stereo not shown) [BOL-303242-X]
Proportion of subjects with complete resolution of AC cells ([1]; Visit 5 (postoperative Day 8)): 30.0%
Proportion of subjects with complete resolution of AC cells and flare combined ([1]; Visit 5 (postoperative Day 8)): 30.0%
Proportion of subjects with complete resolution of AC flare ([1]; Visit 5 (postoperative Day 8)): 55.0%
Proportion of subjects with complete resolution of AC cells ([1]; Visit 6 (postoperative Day 15)): 38.3%
Proportion of subjects with complete resolution of AC cells and flare combined ([1]; Visit 6 (postoperative Day 15)): 36.7%
Proportion of subjects with complete resolution of AC flare ([1]; Visit 6 (postoperative Day 15)): 61.7%
Proportion of subjects with complete resolution of AC cells ([1]; Visit 7 (postoperative Day 18)): 46.7%
Proportion of subjects with complete resolution of AC cells and flare combined ([1]; Visit 7 (postoperative Day 18)): 45.0%
Proportion of subjects with complete resolution of AC flare ([1]; Visit 7 (postoperative Day 18)): 58.3%
Anterior chamber cells, change from baseline, compared to vehicle ([1]; Visit 4: 1% BID, 3% QD): Statistically significant mean decreases
Anterior chamber cells, change from baseline, compared to vehicle ([1]; Visit 5: 1% BID, 2% QD, 3% QD, 3% BID): Statistically significant mean decreases
Anterior chamber cells, change from baseline, compared to vehicle ([1]; Visit 6: 1% BID, QD, 3% BID): Statistically significant mean decreases
Anterior chamber cells, change from baseline, compared to vehicle ([1]; Visit 7: 1% BID. 2% QD, QD, 3% BID): Statistically significant mean decreases
Effect on IL-1β-stimulated G-CSF production [2]: significantly inhibited
Effect on IL-1β-stimulated production of 6 cytokines (IL-6, IL-7, MCP-1, TGF-α, TNF-α and VEGF) ([2]; comparable potency): significantly inhibited
Effect on IL-1β-stimulated production of 3 cytokines (GM-CSF, IL-8, and RANTES) ([2]; less potency compared to dexamethasone): significantly inhibited
Proportions of subjects with increases in scores for AC cells (ocular signs; Visit 4 (2% QD) and Visit 5 (2% QID, 3% QID)): statistically significantly lower proportions
Proportions of subjects with increases in scores for ciliary flush (ocular signs; Visit 4 (2% QD), Visit 5 (1% BID, 2% QID, 3% BID, 3% QID), and Visit 7 (2% QID and 3% QD)): statistically significantly lower proportions
Proportions of subjects with increases in scores for AC flare (ocular signs; Visit 4 (2% QID) and Visit 5 (3% BID)): statistically significantly lower proportions
Proportions of subjects with increases in scores for chemosis (ocular signs; Visit 4 (3% BID)): statistically significantly lower proportions
Proportions of subjects with increases in scores for palpebral conjunctival injection (ocular signs; Visit 5 (1% BI), 3% BID)): statistically significantly lower proportions
Proportions of subjects with increases in scores for bulbar conjunctival injection (ocular signs; Visit 5 (2% QID, 3% BID, 3% QID)): statistically significantly lower proportions
Proportions of subjects with increases in scores for anterior vitreous haze, corneal edema, corneal staining, eyelid erythema, hyphema, and posterior synechiae (ocular signs; any dose groups at any postoperative visits): No statistically significant differences
Proportion of subjects with Grade 0 pain ([3]; 1% BID, Visit 6 (postoperative Day 15)): 61.7%
Proportion of subjects with Grade 0 pain ([3]; 1% BID, Visit 7 (postoperative Day 18)): 61.7%
Proportion of subjects with Grade 0 pain ([3]; 2% BID, Visit 6 (postoperative Day 15)): 57.1%
Proportion of subjects with Grade 0 pain ([3]; 2% BID, Visit 7 (postoperative Day 18)): 53.6%
Proportion of subjects with Grade 0 pain ([3]; 2% QD, Visit 6 (postoperative Day 15)): 57.1%
Proportion of subjects with Grade 0 pain ([3]; 2% QD, Visit 7 (postoperative Day 18)): 57.1%
Proportion of subjects with Grade 0 pain ([3]; 2% QID (printed 296 QID), Visit 5 (postoperative Day 8)): 78.396%
Proportion of subjects with Grade 0 pain ([3]; 2% QID, Visit 4 (postoperative Day 3)): 73.3%
Proportion of subjects with Grade 0 pain ([3]; 2% QID, Visit 6 (postoperative Day 15)): 75.0%
Proportion of subjects with Grade 0 pain ([3]; 2% QID, Visit 7 (postoperative Day 18)): 71.7%
Proportion of subjects with Grade 0 pain ([3]; 3% BID, Visit 4 (postoperative Day 3)): 70.0%
Proportion of subjects with Grade 0 pain ([3]; 3% BID, Visit 5 (postoperative Day 8)): 75.0%
Proportion of subjects with Grade 0 pain ([3]; 3% BID, Visit 6 (postoperative Day 15)): 68.3%
Proportion of subjects with Grade 0 pain ([3]; 3% QD, Visit 4 (postoperative Day 3)): 81.4%
Proportion of subjects with Grade 0 pain ([3]; 3% QD, Visit 5 (postoperative Day 8)): 71.2%
Proportion of subjects with Grade 0 pain ([3]; 3% QD, Visit 6 (postoperative Day 15)): 71.2%
Proportion of subjects with Grade 0 pain ([3]; 3% QD, Visit 7 (postoperative Day 18)): 66.1%
Proportion of subjects with Grade 0 pain ([3]; 3% QID, Visit 4 (postoperative Day 3)): 66.7%
Proportion of subjects with Grade 0 pain ([3]; 3% QID, Visit 5 (postoperative Day 8)): 70.0%
Proportion of subjects with Grade 0 pain ([3]; 3% QID, Visit 6 (postoperative Day 15)): 70.0%

Reference: patent US20120065228A1, “COMPOSITIONS AND METHODS FOR TREATING, CONTROLLING, REDUCING, OR AMELIORATING OCULAR INFLAMMATORY WITH LOWER RISK OF INCREASED INTRAOCULAR PRESSURE” (priority 2007, published 2012)
